Data from publication PMC4486055 (Cancer chemotherapy and pharmacology, 2014).
Entries after “also recorded” stand apart in the source; their conditions may differ. Where two headings read alike, the source gives them in different places.

Experiments:
Japanese patients = settings: in combination with gemcitabine, bradycardia, hypertension, DLT troponin T increase; cited from earlier work
[1] = Single-dose pharmacokinetics of AZD7762 in plasma and urine
pChk1ser345 and pH2AX = format: in vivo, human
advanced solid tumors = experiment: Tumor assessments according to RECIST version 1.0; format: in vivo, human; settings: of 38 evaluable; AZD7762 plus gemcitabine
[2] = system: patients with advanced solid tumors; settings: for Serious AE possibly related to AZD7762: one patient
[3] = AZD7762 6 mg/gemcitabine 750 mg/m^2, 3x/cycle, n=6
[4] = AZD7762 6 mg/gemcitabine 1,000 mg/m^2, 2x/cycle, n=2
[5] = AZD7762 6 mg/gemcitabine 1,000 mg/m^2, 3x/cycle, n=1
[6] = AZD7762 9 mg/gemcitabine 1,000 mg/m^2, n=3
[7] = AZD7762 14 mg/gemcitabine 1,000 mg/m^2, n=6
[8] = AZD7762 21 mg/gemcitabine 1,000 mg/m^2, n=3
[9] = AZD7762 30 mg/gemcitabine 1,000 mg/m^2, n=7
[10] = AZD7762 32 mg/gemcitabine 1,000 mg/m^2, n=6
[11] = AZD7762 40 mg/gemcitabine 1,000 mg/m^2, n=8
[12] = all doses, overall, 11/42 patients
[13] = cycle 0 (AZD7762 alone), 6/42 patients
[14] = cycle 1 onwards, AZD7762 6 mg plus gemcitabine 1,000 mg/m^2, 3x/cycle, n=1

NC(=O)Nc1cc(-c2cccc(F)c2)sc1C(=O)N[C@H]1CCCNC1 [AZD7762]
Dose escalation limit due to cardiac AEs (Japanese patients): did not support dose escalation beyond 21 mg | Peak plasma concentration ([1]; 30 mg dose): 291 ng/mL | Unchanged drug excreted in the urine ([1]; first 48 h post-dosing, across all dose levels): 11–20% | AZD7762 exposure (Cmax, C24 h, and AUC) versus dose ([1]; over the dose range studied): increased linearly; also recorded: increased in a dose-proportional manner | Change in staining of pChk1ser345 and pH2AX (pChk1ser345 and pH2AX; 32 mg cohort, AZD7762 after gemcitabine): small increases in staining | H-scores for both biomarkers (out of 12) (pChk1ser345 and pH2AX; hair follicles from skin biopsies, pChk1ser345 and pH2AX): 0–3 | Change in staining of pChk1ser345 and pH2AX (pChk1ser345 and pH2AX; other dose cohorts): no increased staining | Best response stable disease for ≥6–<12 weeks, patients (advanced solid tumors): five | Disease progression as best response, patients (advanced solid tumors): 20 patients | Stable disease for ≥12 weeks, patients (advanced solid tumors): four | Blood ALP increased, number of patients (%) [2, 3]: 0 patients (%) | Constipation, number of patients (%) [2, 3]: 2 (33) patients (%) | Decreased appetite, number of patients (%) [2, 3]: 2 (33) patients (%) | Dehydration, number of patients (%) [2, 3]: 2 (33) patients (%) | Diarrhea, number of patients (%) [2, 3]: 0 patients (%) | Neutropenia/leukopenia, number of patients (%) [2, 3]: 0 patients (%) | Thrombocytopenia, number of patients (%) [2, 3]: 2 (33) patients (%) | Vomiting, number of patients (%) [2, 3]: 2 (33) patients (%) | Decreased appetite, number of patients (%) [2, 4]: 0 patients (%) | Diarrhea, number of patients (%) [2, 4]: 0 patients (%) | Headache, number of patients (%) [2, 4]: 0 patients (%) | Nausea, number of patients (%) [2, 4]: 0 patients (%) | Neutropenia/leukopenia, number of patients (%) [2, 4]: 0 patients (%) | Thrombocytopenia, number of patients (%) [2, 4]: 0 patients (%) | ALT/AST increased, number of patients (%) [2, 5]: 0 patients (%) | Blood ALP increased, number of patients (%) [2, 5]: 0 patients (%) | Constipation, number of patients (%) [2, 5]: 0 patients (%) | Decreased appetite, number of patients (%) [2, 5]: 0 patients (%) | Dehydration, number of patients (%) [2, 5]: 0 patients (%) | Headache, number of patients (%) [2, 5]: 0 patients (%) | Thrombocytopenia, number of patients (%) [2, 5]: 0 patients (%) | ALT/AST increased, number of patients (%) [2, 6]: 0 patients (%) | Anemia/Hb decreased, number of patients (%) [2, 6]: 1 (33) patients (%) | Blood ALP increased, number of patients (%) [2, 6]: 0 patients (%) | Constipation, number of patients (%) [2, 6]: 1 (33) patients (%) | Decreased appetite, number of patients (%) [2, 6]: 0 patients (%) | Dehydration, number of patients (%) [2, 6]: 1 (33) patients (%) | Diarrhea, number of patients (%) [2, 6]: 1 (33) patients (%) | Fatigue, number of patients (%) [2, 6]: 1 (33) patients (%) | Nausea, number of patients (%) [2, 6]: 1 (33) patients (%) | Neutropenia/leukopenia, number of patients (%) [2, 6]: 0 patients (%) | Thrombocytopenia, number of patients (%) [2, 6]: 1 (33) patients (%) | Vomiting, number of patients (%) [2, 6]: 0 patients (%) | ALT/AST increased, number of patients (%) [2, 7]: 0 patients (%) | Anemia/Hb decreased, number of patients (%) [2, 7]: 0 patients (%) | Blood ALP increased, number of patients (%) [2, 7]: 0 patients (%) | Constipation, number of patients (%) [2, 7]: 2 (33) patients (%) | Dehydration, number of patients (%) [2, 7]: 0 patients (%) | Headache, number of patients (%) [2, 7]: 0 patients (%) | Neutropenia/leukopenia, number of patients (%) [2, 7]: 2 (33) patients (%) | ALT/AST increased, number of patients (%) [2, 8]: 0 patients (%) | Anemia/Hb decreased, number of patients (%) [2, 8]: 0 patients (%) | Blood ALP increased, number of patients (%) [2, 8]: 0 patients (%) | Constipation, number of patients (%) [2, 8]: 0 patients (%) | Dehydration, number of patients (%) [2, 8]: 1 (33) patients (%) | Diarrhea, number of patients (%) [2, 8]: 0 patients (%) | Headache, number of patients (%) [2, 8]: 0 patients (%) | Nausea, number of patients (%) [2, 8]: 1 (33) patients (%) | Neutropenia/leukopenia, number of patients (%) [2, 8]: 0 patients (%) | Pyrexia, number of patients (%) [2, 8]: 0 patients (%) | Thrombocytopenia, number of patients (%) [2, 8]: 0 patients (%) | Vomiting, number of patients (%) [2, 8]: 1 (33) patients (%) | Constipation, number of patients (%) [2, 9]: 1 (14) patients (%) | Decreased appetite, number of patients (%) [2, 9]: 0 patients (%) | Dehydration, number of patients (%) [2, 9]: 0 patients (%) | Fatigue, number of patients (%) [2, 9]: 0 patients (%) | Headache, number of patients (%) [2, 9]: 0 patients (%) | Nausea, number of patients (%) [2, 9]: 1 (14) patients (%) | Pyrexia, number of patients (%) [2, 9]: 0 patients (%) | Thrombocytopenia, number of patients (%) [2, 9]: 0 patients (%) | ALT/AST increased, number of patients (%) [2, 10]: 0 patients (%) | Blood ALP increased, number of patients (%) [2, 10]: 0 patients (%) | Constipation, number of patients (%) [2, 10]: 0 patients (%) | Decreased appetite, number of patients (%) [2, 10]: 2 (33) patients (%) | Diarrhea, number of patients (%) [2, 10]: 2 (33) patients (%) | Anemia/Hb decreased, number of patients (%) [2, 11]: 2 (25) patients (%) | Decreased appetite, number of patients (%) [2, 11]: 0 patients (%) | Dehydration, number of patients (%) [2, 11]: 0 patients (%) | Fatigue, number of patients (%) [2, 11]: 2 (25) patients (%) | Headache, number of patients (%) [2, 11]: 0 patients (%) | Nausea, number of patients (%) [2, 11]: 2 (25) patients (%) | Pyrexia, number of patients (%) [2, 11]: 2 (25) patients (%) | Thrombocytopenia, number of patients (%) [2, 11]: 2 (25) patients (%) | ALT/AST increase, patients with AE overall [2, 12]: 26% | Nausea, patients with AE overall [2, 12]: 26% | Pyrexia, patients with AE overall [2, 12]: 26% | Anemia/Hb decrease, patients with AE overall ([2]; all doses, overall, 12/42 patients): 29% | Neutropenia/leukopenia, patients with AE overall ([2]; all doses, overall, 15/42 patients): 36% | Fatigue, patients with AE overall ([2]; all doses, overall, 17/42 patients): 41% | ALT/AST increased, number of patients (%) ([2]; all doses, total n=42): 11 (26) patients (%) | Dehydration, number of patients (%) ([2]; all doses, total n=42): 6 (14) patients (%) | Nausea, number of patients (%) ([2]; all doses, total n=42): 11 (26) patients (%) | Pyrexia, number of patients (%) ([2]; all doses, total n=42): 11 (26) patients (%) | Nausea, patients with AE ([2]; cycle 0 (AZD7762 alone), 5/42 patients): 12% | Fatigue, patients with AE [2, 13]: 14% | Vomiting, patients with AE [2, 13]: 14% | AEs of CTCAE grade ≥3, patients ([2]; cycle 0 (AZD7762 alone), 8/42 patients): 19% | Adverse events grade ≥3, patients ([2]; cycle 0, AZD7762 monotherapy 6 mg (6/750 cohort, 3x/cycle, n=6)): 2 (33) n (%) | Adverse events grade ≥3, patients ([2]; cycle 0, AZD7762 monotherapy 6 mg (6/1,000 cohort, 2x/cycle, n=2)): 0 n (%) | Adverse events grade ≥3, patients ([2]; cycle 0, AZD7762 monotherapy 6 mg (6/1,000 cohort, 3x/cycle, n=1)): 0 n (%) | Adverse events grade ≥3, patients ([2]; cycle 0, AZD7762 monotherapy 9 mg, n=3): 0 n (%) | Adverse events grade ≥3, patients ([2]; cycle 0, AZD7762 monotherapy 14 mg, n=6): 0 n (%) | Adverse events grade ≥3, patients ([2]; cycle 0, AZD7762 monotherapy 21 mg, n=3): 0 n (%) | Adverse events grade ≥3, patients ([2]; cycle 0, AZD7762 monotherapy 30 mg, n=7): 0 n (%) | Adverse events grade ≥3, patients ([2]; cycle 0, AZD7762 monotherapy 32 mg, n=6): 3 (50) n (%) | Grade ≥3 adverse events, term ([2]; cycle 0, AZD7762 monotherapy 32 mg, n=6, n=1 per term unless stated): Hyponatremia Peripheral neuropathy Troponin I increased | Adverse events grade ≥3, patients ([2]; cycle 0, AZD7762 monotherapy 40 mg, n=8): 3 (38) n (%) | Grade ≥3 adverse events, term ([2]; cycle 0, AZD7762 monotherapy 40 mg, n=8, n=1 per term unless stated): Device-related infection Myocardial ischemia Hyperglycemia | AEs of CTCAE grade ≥3, patients ([2]; cycle 1 (AZD7762 in combination with gemcitabine), 22/42 patients): 52% | Non-cardiac dose-limiting toxicity ([2]; cycle 1, one patient at AZD7762 32 mg with gemcitabine 1,000 mg/m^2): grade 3 nausea/vomiting for 2 days | Non-cardiac dose-limiting toxicity ([2]; cycle 1, one patient at AZD7762 40 mg with gemcitabine 1,000 mg/m^2): grade 4 neutropenia complicated by ≥38.5 °C fever for 2 days | Adverse events grade ≥3, patients ([2]; cycle 1 onwards, AZD7762 6 mg plus gemcitabine 750 mg/m^2, 3x/cycle, n=6): 5 (83) n (%) | Adverse events grade ≥3, patients ([2]; cycle 1 onwards, AZD7762 6 mg plus gemcitabine 1,000 mg/m^2, 2x/cycle, n=2): 1 (50) n (%) | Adverse events grade ≥3, patients [2, 14]: 1 (100) n (%) | Grade ≥3 adverse events, term [2, 14]: Neutropenia (n = 2) | Adverse events grade ≥3, patients ([2]; cycle 1 onwards, AZD7762 9 mg plus gemcitabine 1,000 mg/m^2, n=3): 1 (33) n (%) | Grade ≥3 adverse events, term ([2]; cycle 1 onwards, AZD7762 9 mg plus gemcitabine 1,000 mg/m^2, n=3, n=1 per term): Thrombocytopenia | Adverse events grade ≥3, patients ([2]; cycle 1 onwards, AZD7762 14 mg plus gemcitabine 1,000 mg/m^2, n=6): 2 (33) n (%) | Adverse events grade ≥3, patients ([2]; cycle 1 onwards, AZD7762 21 mg plus gemcitabine 1,000 mg/m^2, n=3): 1 (33) n (%) | Grade ≥3 adverse events, term ([2]; cycle 1 onwards, AZD7762 21 mg plus gemcitabine 1,000 mg/m^2, n=3, n=1 per term): Atrial thrombosis Febrile neutropenia | Adverse events grade ≥3, patients ([2]; cycle 1 onwards, AZD7762 30 mg plus gemcitabine 1,000 mg/m^2, n=7): 4 (57) n (%) | Adverse events grade ≥3, patients ([2]; cycle 1 onwards, AZD7762 32 mg plus gemcitabine 1,000 mg/m^2, n=6): 3 (50) n (%) | Grade ≥3 adverse events, term ([2]; cycle 1 onwards, AZD7762 32 mg plus gemcitabine 1,000 mg/m^2, n=6, n=1 per term): Neutropenia Flank pain Nausea Vomiting | Adverse events grade ≥3, patients ([2]; cycle 1 onwards, AZD7762 40 mg plus gemcitabine 1,000 mg/m^2, n=8): 4 (50) n (%) | Adverse events grade ≥3, patients ([2]; cycle 1 onwards, AZD7762 plus gemcitabine, all doses, total n=42): 22 (52) n (%) | Serious AE possibly related to AZD7762 ([2]; AZD7762 30 mg group, also judged causally related to gemcitabine): grade 3 chest pain | Serious AE possibly related to AZD7762 ([2]; AZD7762 40 mg group, also recorded as a DLT): grade 3 myocardial ischemia
